From US9180106B2, “Sigma receptors ligands with anti-apoptotic and/or pro-apoptotic properties, over cellular mechanisms, exhibiting prototypical cytoprotective and also anti-cancer activity” (Anavex Life Sciences Corp., priority 2009, dated 2015)

Key:
[1] = system: cancer cells: colorectal, prostate, ovarian renal, pancreas, lung, gliomas, glioblastomas leukemia, lymphomas, melanomas, sarcomas and hepatoma
σ-1 receptors [2] = biological target: T1, σ-1 receptors (Homo sapiens, UniProt Q99720); assay: affinity for σ-1 receptors; type: binding; conditions: read-out: affinity for σ-1 receptors (pKi) (converted)
T1 sequence (Q99720 whole entry): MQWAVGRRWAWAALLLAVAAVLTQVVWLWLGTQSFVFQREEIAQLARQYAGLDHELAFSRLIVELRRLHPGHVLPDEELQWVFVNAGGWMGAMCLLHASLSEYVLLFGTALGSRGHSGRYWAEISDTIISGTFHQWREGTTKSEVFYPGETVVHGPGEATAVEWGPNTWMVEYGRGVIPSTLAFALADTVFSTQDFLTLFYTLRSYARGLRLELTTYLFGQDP

ER stress = assay: protocols of acute or chronic ER and cellular stress, in vitro and in vivo; set-up: species or system mice
σ-2 receptors = σ-2 receptors (Homo sapiens, UniProt Q5BJF2); assay: affinity for σ-2 receptors; type: binding
Sequence of σ-2 receptors (Q5BJF2 whole entry): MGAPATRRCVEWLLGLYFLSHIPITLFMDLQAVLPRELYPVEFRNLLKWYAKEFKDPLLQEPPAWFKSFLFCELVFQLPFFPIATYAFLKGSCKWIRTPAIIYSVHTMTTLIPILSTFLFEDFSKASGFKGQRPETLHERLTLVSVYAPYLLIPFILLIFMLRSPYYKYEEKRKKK

σ-1 receptors [3] = biological target: T1, σ-1 receptors; assay: agonistic/antagonistic action on σ-1 receptors
[4] = system: primary (drug resistant) melanoma; assay: in vivo anticancer activity in mice xenografts
From the text: All molecules present strong chemical affinities (sub-nanomolar to micromolar) for α-1 receptors with antagonistic action (except AdAE and AdPhAE which are weak agonists) and with nanomolar to micromolar affinities for α-2 receptors and agonistic action. Therefore, all molecules above and their derivatives are pro-apoptotic and only at very low concentrations or doses are anti-apoptotic. All molecules above are toxic to the cancer cells: colorectal, prostate, ovarian renal, pancreas, lung, gliomas, glioblastomas leukemia, lymphomas, melanomas, sarcomas and hepatoma, with antiproliferative and cytotoxic concentrations usually lower than 10 microMolar (μM), for more than 50 of the above derivatives. […] The pharmacological profile of the above molecules is totally prototypical and original giving the possibility of a therapeutic synergy with the clinically used anticancer drugs with simultaneous antagonism and protection against the most grave secondary effects i.e., neuropathic pain and disability induced by the clinically used anticancer drugs.

PTZ-induced tonic crises = assay: protection against pentylenetetrazole (PTZ) induced stress and tonic crises; conditions: in vitro or in vivo, on mice
glioblastomas = assay: in vitro cytotoxicity, glioblastomas; type: cell-based
[5] = system: primary (drug resistant) melanoma; assay: in vitro cytotoxicity, primary melanoma; type: cell-based
leukaemia = assay: in vitro cytotoxicity, leukaemia; type: cell-based
breast = assay: in vitro cytotoxicity, breast; type: cell-based
lung = assay: in vitro cytotoxicity, lung; type: cell-based
colon = assay: in vitro cytotoxicity, colon; type: cell-based
[6] = system: scopolamine and dizocilpine (MK-801) induced amnesia or amyloid peptide β25-35 (Aβ25-35); assay: anti-amnesic action in mice; type: in vivo; conditions: per os (po)
Procedure: The above molecular profile is the basis for AE14 modulatory role over the G-protein coupled receptors (GPCRs) and its pharmacological properties: anti-amnesic action (antagonistic action against scopolamine and dizocilpine (MK-801) induced amnesia or amyloid peptide β25-35 (Aβ25-35), at low doses (from 0.03 mg/kg administered per os (po), in mice). This unique new profile of AE14: anti-apoptotic via agonistic sigma-1 regulation of the volume regulated chloride channels (VRCC), anti-oxidative stress via agonistic action on the sigma-1 receptors of the ER-mitochondrion.

In the case of `COc1ccc(CCN2CCC(Nc3nc4ccccc4n3Cc3ccc(F)cc3)CC2)cc1` [AST, Astemizole], the “cytotoxicity, in vitro” value [1] is reported as 3.0 to 5.0 µM.

In the case of `CN(C)CC1CCOC1(c1ccccc1)c1ccccc1` (centres unmarked) [AE37, Tetrahydro-N,N-Dtiviethyl-2,2-Dinienyl-3-Furanomethanamine], the Ki (σ-1 receptors [2]) is reported as 0.501 µM, the anti-apoptotic properties (ER stress; chronic ER and cellular stress, in vitro and in vivo on mice) is reported as “high anti-apoptotic properties” and the “affinity for σ-2 receptors” value (σ-2 receptors) is reported as “no affinity”. The “action on σ-1 receptors” value (σ-1 receptors [3]) was “selective σ-1 agonist”.

In the case of `CN(C)CC1COC2(C1)C1CC3CC(C1)CC2C3` (centres unmarked) [AdAE, (DIHYDRO-4-(DIMETHYLAMINOMETHYL)SPIRO {FURANE-2(3H),2′-TRICYCLO[3.3.1.13,7]DECANE}], the “action on σ-1 receptors” value (σ-1 receptors [3]) is reported as “weak agonists”.

With `CN(C)/N=N/c1[nH]cnc1C(N)=O` [Dacarbazine] the “in vivo anticancer activity” value [4] was “inactive”.

For `CNCC1CCOC1(c1ccccc1)c1ccccc1` (centres unmarked) [AE37 Met, Tetrahydro-N-Methyl-2,2-Diphenyl-3-Furanomethanamine], the “protection against ER-mitochondrion anoxia and oxidative stress caused by PTZ” value (PTZ-induced tonic crises) was “exceptional protection” and the “activity relative to AE37” value (ER stress; for the properties mentioned for AE37) was “slightly more active than AE37”.

`CN(C)CC1COC(c2ccccc2)(C23CC4CC(CC(C4)C2)C3)C1` (centres unmarked) [AdPhAE, 5-(TRICYCLO[3.3.1.13,7]DEC-1-YL)-TETRAHYDRO-N,N-DIMETHYL-5-PHENYL-3-FURANEMETHANAMINE] was tested, and the “action on σ-1 receptors” value (σ-1 receptors [3]) was “weak agonists”.

In the case of `CCN(CC)CCCC(C)Nc1c2ccc(Cl)cc2nc2ccc(OC)cc12` (centres unmarked) [QNC, Quinacrine], the “in vivo anticancer activity” value [4] is reported as “outstanding in vivo activity”.

With `CN(C)c1ccc2nc3ccc(=[N+](C)C)cc-3sc2c1` [MB, Methylene blue] the “cytotoxicity, in vitro” value (glioblastomas) was about 2.0 µM, the “cytotoxicity, in vitro” value [5] was “lower than 1.0 μM” and the “cytotoxicity, in vitro” value (leukaemia) was “lower than 1.0 μM”. The “cytotoxicity, in vitro” value (breast) was about 2.0 µM, the “in vivo anticancer activity” value [4] was “confirmed in vivo” and the “cytotoxicity, in vitro” value (lung) was “lower than 1.0 μM”. The “cytotoxicity, in vitro” value (colon) was about 2.0 µM.

With `CN(C)CC1COC(c2ccccc2)(c2ccccc2)C1` (centres unmarked) [AE14, Tetrahydro-N,N,-Dimethyl-5,5-Diphenyl-3-Furanomethanamine] the Ki (σ-1 receptors [2]) was 0.0251 µM, the “effect on ER stress” value (ER stress; acute or chronic cellular stress, oligopeptides or streptozocin, in vitro and in vivo on mice) was “antagonized the ER stress” and the Ki (σ-2 receptors) was over 10 µM. The “affinity for σ-2 receptors, times lower than for σ-1” value (σ-2 receptors; σ-2 versus σ-1) was “more than 100 times” and the “anti-amnesic action, active doses” value [6] was at least 0.03 mg/kg.
